From paper PMC2923778 (Journal of Molecular Biology, 2010)
Where no end group is shown, it is not given here.

Legend:
mSPSB4ΔSB = target: T1, mSPSB4ΔSB (Mus musculus, UniProt Q8R5B6); assay: ITC of hPar-4 peptides with mSPSB4ΔSB; assay type: binding, murine; conditions: 22 °C
T1 construct: mSPSB1 and mSPSB4 lacking the C-terminal SOCS box region (mSPSB1ΔSB and mSPSB4ΔSB); GST (cleaved yes); made in house; host or cells: E. coli Origami B(DE3) pLysS
T1 sequence (Q8R5B6 1-233): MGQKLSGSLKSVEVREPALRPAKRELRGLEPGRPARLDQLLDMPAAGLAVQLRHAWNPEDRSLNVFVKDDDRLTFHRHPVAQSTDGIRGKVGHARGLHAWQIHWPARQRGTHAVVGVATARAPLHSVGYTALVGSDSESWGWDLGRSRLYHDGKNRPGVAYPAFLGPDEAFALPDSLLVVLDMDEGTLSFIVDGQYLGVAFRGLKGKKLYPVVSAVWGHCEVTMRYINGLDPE
Protocol: (§1) Shorter mSPSB constructs were also used for mSPSB1 and mSPSB4 lacking the C-terminal SOCS box region (mSPSB1ΔSB and mSPSB4ΔSB); they were cloned into pGEX-2T (GE Healthcare, UK). […] Each of the mSPSBΔSB constructs was expressed in Origami B(DE3) pLysS cells (Novagen, Madison, WI) as a GST fusion protein at 20 °C for 24 h with 0.5 mM IPTG added at OD600 = 0.6–0.8.
(§2) ITC measurements on mSPSB proteins were performed at 22 °C using a MicroCalorimetry System (MicroCal, Northhampton, MA). mSPSB1, mSPSB2, and mSPSB4 were prepared by dialyzing against 20 mM Tris, 150 mM sodium chloride, and 2.5 mM calcium chloride at pH 8.0. Measurements on hSPSB proteins were performed at 20 °C using a VP-ITC titration calorimeter (MicroCal). hSPSB1 protein was dialyzed against 50 mM Hepes, pH 7.4, 150 mM NaCl, and 1 mM DTT. hSPSB2 and hSPSB4 proteins were dialyzed against 50 mM Hepes, pH 7.4, 150 mM NaCl, and 0.5 mM TCEP. Peptides for each experiment were dissolved in the corresponding dialysis buffers. ITC measurements were routinely carried out by titrating 100 μM peptide solution into 10 μM protein. Dilution enthalpies were determined separately by titrating peptide into buffer and used to correct the enthalpies of the binding of protein and peptide. Data were analyzed using a single binding site model implemented in the Origin software package provided with the instrument.

hSPSB1-elonginBC = test system: hSPSB1-elonginBC; set-up: method as in PMID 17189197; conditions: previous study; cited from earlier work
mSPSB1ΔSB = target: T2, mSPSB1ΔSB (Mus musculus, UniProt Q9D5L7); assay: ITC of hPar-4 peptides with mSPSB1ΔSB; assay type: binding, murine; conditions: 22 °C
T2 construct: mSPSB1 and mSPSB4 lacking the C-terminal SOCS box region (mSPSB1ΔSB and mSPSB4ΔSB); GST (cleaved yes); made in house; host or cells: E. coli Origami B(DE3) pLysS
T2 sequence (Q9D5L7 1-231): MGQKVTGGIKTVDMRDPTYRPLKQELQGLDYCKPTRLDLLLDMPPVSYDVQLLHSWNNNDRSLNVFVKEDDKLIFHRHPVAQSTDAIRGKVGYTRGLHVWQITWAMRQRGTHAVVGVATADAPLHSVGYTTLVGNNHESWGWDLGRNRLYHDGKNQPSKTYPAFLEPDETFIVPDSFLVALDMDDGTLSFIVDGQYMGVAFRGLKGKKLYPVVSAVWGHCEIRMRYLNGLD
Text: Shorter mSPSB constructs were also used for mSPSB1 and mSPSB4 lacking the C-terminal SOCS box region (mSPSB1ΔSB and mSPSB4ΔSB); they were cloned into pGEX-2T (GE Healthcare, UK). The shorter mSPSB2 construct excluded the first 11 residues at the N-terminus and the C-terminus SOCS box [mSPSB2(12–224)]. mSPSB2(12–224) and mutants used in this study have been described previously.[21] Each of the mSPSBΔSB constructs was expressed in Origami B(DE3) pLysS cells (Novagen, Madison, WI) as a GST fusion protein at 20 °C for 24 h with 0.5 mM IPTG added at OD600 = 0.6–0.8. The mSPSBΔSB proteins were isolated according to the method used for purifying the mSPSB–elonginBC complex.
as §2

mSPSB2(12–224) = target: T3, mSPSB2(12–224) (Mus musculus, UniProt O88838); assay: ITC of hPar-4 peptides with mSPSB2(12–224); assay type: binding, murine; conditions: 22 °C, pH 8.0, nm [sic]
T3 construct: mSPSB2(12–224) and mutants used in this study have been described previously; GST (cleaved yes); made in house; host or cells: E. coli Origami B(DE3) pLysS
T3 sequence (O88838 12-224): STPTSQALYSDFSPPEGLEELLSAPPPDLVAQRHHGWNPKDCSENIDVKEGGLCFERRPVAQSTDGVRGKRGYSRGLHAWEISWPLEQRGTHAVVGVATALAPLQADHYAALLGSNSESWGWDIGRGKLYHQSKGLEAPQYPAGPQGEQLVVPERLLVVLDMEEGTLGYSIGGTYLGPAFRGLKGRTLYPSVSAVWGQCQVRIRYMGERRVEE
Protocol: as §1, §2

mSPSB4ΔSB (murine) = assay: ITC; 100 μM peptide titrated into 10 μM mSPSB protein; 22 °C; 20 mM Tris, 150 mM sodium chloride, 2.5 mM calcium chloride, pH 8.0; single binding site model
[1] = 20 mM Tris, 150 mM NaCl, 2.5 mM CaCl2, pH 8.0, 100 μM peptide into 10 μM protein, ± standard error of the mean

## AAANEINNNLPGGA [[L69I]hPar-4(64–77)]
mSPSB4ΔSB; [1]
  Kd: 55 ± 8 nM

## [N72A]hPar-4(67–81): N72A mutant peptide of hPar-4(67–81) from a previous study (ref 10) (NELNNALPGGAPAAP; UniProt Q96IZ0 67-81, looked up, variant N72A)
hSPSB1-elonginBC
  binding to hSPSB1-elonginBC (in words): poor binding

## AAANDINNNLPGGA [[E68D,L69I]hPar-4(64–77)]
mSPSB1ΔSB; [1]
  Kd: 40 ± 5 nM
mSPSB4ΔSB; [1]
  Kd: 33 ± 23 nM

## AAANELNANLPGGA [[N71A]hPar-4(64–77)]
mSPSB1ΔSB; pH 8.0, nm [sic]
  Kd: > 50000 nM
mSPSB2(12–224)
  Kd: > 50000 nM
mSPSB4ΔSB; pH 8.0, nm [sic]
  Kd: > 50000 nM

## GTPAAAADNELNNNLPGGA [[A66D]hPar-4(59–77)]
mSPSB4ΔSB; [1]
  Kd: 255 ± 5 nM

## CC(C)C[C@H](NC(=O)[C@H](CCC(=O)O)NC(=O)[C@H](CC(N)=O)NC(=O)[C@H](C)NC(=O)[C@H](C)NC(=O)[C@H](C)NC(=O)[C@H](C)NC(=O)[C@H](C)NC(=O)[C@@H]1CCCN1C(=O)[C@@H](NC(=O)CN)[C@@H](C)O)C(=O)N[C@@H](CC(N)=O)C(=O)N[C@@H](CC(N)=O)C(=O)N[C@@H](C)C(=O)N[C@@H](CC(C)C)C(=O)N1CCC[C@H]1C(=O)NCC(=O)NCC(=O)N[C@@H](C)C(=O)O [[N72A]hPar-4(59–77)]
mSPSB2(12–224)
  Kd: > 50000 nM

## hPar-4(59–77) (peptide)
mSPSB4ΔSB (murine)
  Kd: 189 nM

## AAANDLNNNLPGGA [[E68D]hPar-4(64–77)]
mSPSB4ΔSB; [1]
  Kd: 47 ± 22 nM

## AAANELNNNLPGGA [hPar-4(64–77)]
mSPSB1ΔSB; [1]
  Kd: 210 ± 19 nM
mSPSB4ΔSB; [1]
  Kd: 213 ± 7 nM

## AAANELANNLPGGA [[N70A]hPar-4(64–77)]
mSPSB1ΔSB; pH 8.0, nm [sic]
  Kd: > 50000 nM
mSPSB2(12–224)
  Kd: > 50000 nM
mSPSB4ΔSB; pH 8.0, nm [sic]
  Kd: > 50000 nM
